pIC50: −log10 of the molar value.
biological target: cGMP-specific 3',5'-cyclic phosphodiesterase PDE V (Sus scrofa); assay: Inhibitory potency against pig aortic PDE V.

Q: With `COC(=O)c1ccccc1NC(=O)c1ccc(OC)c(OC2CCCC2)c1` [2-(3-Cyclopentyloxy-4-methoxy-benzoylamino)-benzoic acid methyl ester] as the molecule, how does the pIC50 read?
A: 5.26

Q: `COc1ccc(C(=O)Nc2ccccc2F)cc1OC1CCCC1` [3-(cyclopentyloxy)-N-(2-fluorophenyl)-4-methoxybenzamide] was tested. Which pIC50 did it give?
A: < 3.00

Q: With `COc1ccc(C(=O)Nc2ccccc2SC)cc1OC1CCCC1` [3-Cyclopentyloxy-4-methoxy-N-(2-methylsulfanyl-phenyl)-benzamide] as the molecule, how does the pIC50 read?
A: < 3.70

Q: `COc1ccc(C(=O)Nc2ccccc2C(F)(F)F)cc1OC1CCCC1` [3-Cyclopentyloxy-4-methoxy-N-(2-trifluoromethyl-phenyl)-benzamide] was tested. Which pIC50 did it give?
A: < 3.00

Q: With `COc1ccc(C(=O)Nc2ccccc2C)cc1OC1CCCC1` [3-Cyclopentyloxy-4-methoxy-N-o-tolyl-benzamide] as the molecule, how does the pIC50 read?
A: < 3.00

Q: `COc1ccc(C(=O)Nc2ccc(C)cc2)cc1OC1CCCC1` [3-Cyclopentyloxy-4-methoxy-N-p-tolyl-benzamide] was tested. Which pIC50 did it give?
A: < 3.70

Q: `COc1ccc(C(=O)Nc2cccc(Cl)c2Cl)cc1OC1CCCC1` [3-Cyclopentyloxy-N-(2,3-dichloro-phenyl)-4-methoxy-benzamide] was tested. Which pIC50 did it give?
A: < 3.70

Q: `COc1ccc(C(=O)Nc2c(F)cccc2F)cc1OC1CCCC1` [3-Cyclopentyloxy-N-(2,6-difluoro-phenyl)-4-methoxy-benzamide] was tested. Which pIC50 did it give?
A: < 3.00

Q: With `COc1ccc(C(=O)Nc2ccccc2O)cc1OC1CCCC1` [3-Cyclopentyloxy-N-(2-hydroxy-phenyl)-4-methoxy-benzamide] as the molecule, how does the pIC50 read?
A: 3.76

Q: How did the pIC50 turn out when `COc1ccc(C(=O)Nc2ccc(F)cc2)cc1OC1CCCC1` [3-Cyclopentyloxy-N-(4-fluoro-phenyl)-4-methoxy-benzamide] was run?
A: < 3.00

Q: With `COc1ccc(C(=O)Nc2ccccc2C(=O)c2ccccc2)cc1OC1CCCC1` [N-(2-Benzoyl-phenyl)-3-cyclopentyloxy-4-methoxy-benzamide] as the molecule, how does the pIC50 read?
A: 5.60

Q: How did the pIC50 turn out when `COc1ccc(C(=O)Nc2ccccc2Br)cc1OC1CCCC1` [N-(2-Bromo-phenyl)-3-cyclopentyloxy-4-methoxy-benzamide] was run?
A: < 3.00

Q: With `COc1ccc(C(=O)Nc2c(F)cccc2Cl)cc1OC1CCCC1` [N-(2-Chloro-6-fluoro-phenyl)-3-cyclopentyloxy-4-methoxy-benzamide] as the molecule, how does the pIC50 read?
A: < 3.00

Q: With `COc1ccc(C(=O)Nc2c(C)cccc2Cl)cc1OC1CCCC1` [N-(2-Chloro-6-methyl-phenyl)-3-cyclopentyloxy-4-methoxy-benzamide] as the molecule, how does the pIC50 read?
A: < 3.00

Q: With `COc1ccc(C(=O)Nc2ccccc2Cl)cc1OC1CCCC1` [N-(2-Chloro-phenyl)-3-cyclopentyloxy-4-methoxy-benzamide] as the molecule, how does the pIC50 read?
A: < 3.70

Q: With `COc1ccc(C(=O)Nc2cccc(Cl)c2)cc1OC1CCCC1` [N-(3-Chloro-phenyl)-3-cyclopentyloxy-4-methoxy-benzamide] as the molecule, how does the pIC50 read?
A: < 4.40

Q: With `COc1ccc(C(=O)Nc2ccc(Cl)cc2)cc1OC1CCCC1` [N-(4-Chloro-phenyl)-3-cyclopentyloxy-4-methoxy-benzamide] as the molecule, how does the pIC50 read?
A: < 3.00
